16 compounds from patent US20210070748A1, “INHIBITORS OF BRUTONS TYROSINE KINASE” (Pharmacyclics LLC, priority 2015, published 2021) can be followed below.

Assay type in all cases: biochemical
One experiment concerns the target T1, BTK-WT (Homo sapiens, UniProt Q06187).
T1 construct: purified from insect cells as a full-length construct containing an N-terminal 6X-His tag; His6 (N); made in house; host or cells: insect cells (baculovirus Sf21 in Method B)
The experiment can be described thus: Btk in vitro inhibitory activity (one of Method A TR-FRET, Method B electrophoretic mobility shift, Method C radiometric filter binding). The conditions noted are these: D-compounds panel data; read-out: IC50 BTK-WT.

The next experiment addresses T2, JAK3 (Homo sapiens, UniProt P52333).
T2 sequence (P52333 1-1124): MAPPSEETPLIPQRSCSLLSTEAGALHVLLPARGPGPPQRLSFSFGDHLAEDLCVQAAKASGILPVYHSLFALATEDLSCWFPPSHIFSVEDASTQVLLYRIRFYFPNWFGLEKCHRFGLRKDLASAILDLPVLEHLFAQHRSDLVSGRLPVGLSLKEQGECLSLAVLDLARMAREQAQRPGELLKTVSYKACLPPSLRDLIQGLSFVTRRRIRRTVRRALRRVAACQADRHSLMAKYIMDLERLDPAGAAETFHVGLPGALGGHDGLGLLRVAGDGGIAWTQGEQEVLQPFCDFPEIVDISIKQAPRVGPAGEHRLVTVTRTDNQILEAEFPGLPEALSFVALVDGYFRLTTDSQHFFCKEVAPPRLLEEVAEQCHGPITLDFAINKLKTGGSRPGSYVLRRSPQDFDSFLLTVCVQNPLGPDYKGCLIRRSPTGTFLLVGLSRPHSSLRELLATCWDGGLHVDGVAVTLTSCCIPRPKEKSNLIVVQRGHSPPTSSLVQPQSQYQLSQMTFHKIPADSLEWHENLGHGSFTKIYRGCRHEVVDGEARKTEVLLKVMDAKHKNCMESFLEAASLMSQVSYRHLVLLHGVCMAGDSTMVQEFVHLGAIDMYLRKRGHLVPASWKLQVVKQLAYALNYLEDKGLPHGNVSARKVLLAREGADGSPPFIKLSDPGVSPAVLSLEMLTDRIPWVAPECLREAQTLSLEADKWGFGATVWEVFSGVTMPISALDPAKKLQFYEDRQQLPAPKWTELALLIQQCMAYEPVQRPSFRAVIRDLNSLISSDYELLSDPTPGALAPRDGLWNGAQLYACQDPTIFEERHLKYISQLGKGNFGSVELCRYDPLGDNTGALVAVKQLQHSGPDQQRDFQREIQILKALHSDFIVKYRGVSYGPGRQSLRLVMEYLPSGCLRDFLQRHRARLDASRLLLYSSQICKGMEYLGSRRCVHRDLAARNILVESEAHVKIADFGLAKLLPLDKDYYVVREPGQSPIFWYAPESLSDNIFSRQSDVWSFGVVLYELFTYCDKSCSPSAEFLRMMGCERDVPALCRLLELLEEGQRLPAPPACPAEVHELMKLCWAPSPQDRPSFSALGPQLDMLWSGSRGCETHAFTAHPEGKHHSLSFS
The experiment can be described thus: Inhibition of a panel of kinases, in vitro HotSpot kinase assay: JAK3. The note with it: D-compounds panel data; 1 μM ATP; read-out: IC50 JAK3.

For a further experiment, the target named is EGFR (Homo sapiens, UniProt P00533). The experiment can be described thus: Inhibition of a panel of kinases, in vitro HotSpot kinase assay: EGFR. The note with it: D-compounds panel data; 1 μM ATP. As for the experimental part:
(§1) The degree of inhibition of a panel of kinases is determined using the in vitro HotSpot kinase assay (purified enzymes, ^33P-ATP, an appropriate substrate and 1 μM ATP).

The target in another experiment is SRC (Homo sapiens, UniProt P12931). The experiment can be described thus: Inhibition of a panel of kinases, in vitro HotSpot kinase assay: SRC. The conditions noted are these: D-compounds panel data; 1 μM ATP. How it is done: as §1
Chain of SRC (P12931 whole entry): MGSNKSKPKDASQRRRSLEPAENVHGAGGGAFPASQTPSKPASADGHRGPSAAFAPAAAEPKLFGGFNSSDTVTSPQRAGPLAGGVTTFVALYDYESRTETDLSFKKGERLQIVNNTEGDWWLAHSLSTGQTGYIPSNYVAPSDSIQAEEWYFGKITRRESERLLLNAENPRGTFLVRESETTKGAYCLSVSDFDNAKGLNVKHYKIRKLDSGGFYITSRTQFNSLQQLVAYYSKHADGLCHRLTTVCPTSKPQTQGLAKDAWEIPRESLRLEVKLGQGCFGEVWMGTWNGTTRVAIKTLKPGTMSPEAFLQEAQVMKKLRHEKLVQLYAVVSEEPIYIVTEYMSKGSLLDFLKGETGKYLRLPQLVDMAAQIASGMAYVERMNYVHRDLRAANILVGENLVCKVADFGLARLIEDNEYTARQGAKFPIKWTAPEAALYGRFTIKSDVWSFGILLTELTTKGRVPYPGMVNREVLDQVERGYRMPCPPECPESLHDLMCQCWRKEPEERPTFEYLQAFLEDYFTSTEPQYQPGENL

Chain of EGFR (P00533 25-1210): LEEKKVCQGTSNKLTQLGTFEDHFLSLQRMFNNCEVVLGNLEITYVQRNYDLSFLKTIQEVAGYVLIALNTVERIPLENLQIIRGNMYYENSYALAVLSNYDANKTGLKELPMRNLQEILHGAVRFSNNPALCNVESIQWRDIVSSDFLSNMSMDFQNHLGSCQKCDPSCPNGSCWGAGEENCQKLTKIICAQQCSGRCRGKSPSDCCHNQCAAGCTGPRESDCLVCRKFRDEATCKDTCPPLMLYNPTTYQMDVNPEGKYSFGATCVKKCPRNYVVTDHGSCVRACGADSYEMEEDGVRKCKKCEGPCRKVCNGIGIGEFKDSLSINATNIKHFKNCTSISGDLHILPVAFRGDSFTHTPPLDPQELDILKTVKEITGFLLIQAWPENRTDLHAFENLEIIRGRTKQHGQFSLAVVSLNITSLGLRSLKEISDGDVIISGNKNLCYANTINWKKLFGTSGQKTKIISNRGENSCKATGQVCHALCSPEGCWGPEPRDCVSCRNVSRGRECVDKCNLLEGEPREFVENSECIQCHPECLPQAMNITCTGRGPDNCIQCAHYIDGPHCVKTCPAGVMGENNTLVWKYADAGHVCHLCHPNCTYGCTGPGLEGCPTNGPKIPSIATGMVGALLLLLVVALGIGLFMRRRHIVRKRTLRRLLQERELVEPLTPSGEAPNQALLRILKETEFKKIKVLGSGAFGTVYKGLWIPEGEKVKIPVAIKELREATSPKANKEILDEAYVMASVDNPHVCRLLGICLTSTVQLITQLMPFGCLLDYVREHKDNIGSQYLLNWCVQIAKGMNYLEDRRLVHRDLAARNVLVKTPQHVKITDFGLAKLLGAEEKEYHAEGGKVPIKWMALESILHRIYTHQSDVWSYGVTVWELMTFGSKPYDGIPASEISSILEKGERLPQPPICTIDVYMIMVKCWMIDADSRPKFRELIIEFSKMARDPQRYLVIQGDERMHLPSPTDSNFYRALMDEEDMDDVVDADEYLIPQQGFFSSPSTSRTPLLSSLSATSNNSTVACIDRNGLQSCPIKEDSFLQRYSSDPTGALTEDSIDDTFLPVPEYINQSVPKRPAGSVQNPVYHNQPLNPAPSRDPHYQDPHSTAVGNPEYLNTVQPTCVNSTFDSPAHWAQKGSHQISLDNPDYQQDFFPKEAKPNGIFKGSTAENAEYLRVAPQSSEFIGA
T1 sequence (Q06187 whole entry): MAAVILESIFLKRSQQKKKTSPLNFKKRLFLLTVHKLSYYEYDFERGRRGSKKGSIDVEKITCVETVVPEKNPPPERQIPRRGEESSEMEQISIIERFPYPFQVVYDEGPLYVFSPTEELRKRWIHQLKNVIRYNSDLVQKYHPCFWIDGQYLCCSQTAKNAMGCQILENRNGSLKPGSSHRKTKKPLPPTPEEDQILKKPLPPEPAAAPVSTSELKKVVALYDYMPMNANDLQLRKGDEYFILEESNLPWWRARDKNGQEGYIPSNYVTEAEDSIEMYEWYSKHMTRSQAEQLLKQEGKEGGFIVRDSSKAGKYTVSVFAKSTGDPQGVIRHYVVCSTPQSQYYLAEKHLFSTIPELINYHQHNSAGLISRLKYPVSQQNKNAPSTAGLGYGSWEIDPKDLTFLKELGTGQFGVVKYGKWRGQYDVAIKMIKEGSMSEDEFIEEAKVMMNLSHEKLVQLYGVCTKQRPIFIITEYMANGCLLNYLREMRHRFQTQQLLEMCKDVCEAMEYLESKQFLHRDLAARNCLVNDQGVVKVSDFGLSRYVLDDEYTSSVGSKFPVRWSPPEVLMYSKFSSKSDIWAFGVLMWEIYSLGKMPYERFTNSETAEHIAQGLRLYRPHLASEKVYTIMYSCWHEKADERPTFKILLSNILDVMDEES

The term IC50 denotes the concentration needed to halve the response being measured. For `C[C@H]1CC[C@@H](NC(=O)c2ccc(C3CC3)cc2)CN1c1cnc(C(N)=O)c(Nc2ccc(N3CCN(C)CC3)cc2)n1` [Example D-154, 5-[(2S,5R)-5-(4-cyclopropylbenzamido)-2-methylpiperidin-1-yl]-3-{[4-(4-methylpiperazin-1-yl)phenyl]amino}pyrazine-2-carboxamide], the IC50 was at most 0.01 µM on BTK-WT, 0.1 to 1 µM on JAK3, above 10 µM on EGFR and 0.1 to 1 µM against SRC.
On to `C[C@@H]1[C@H](NC(=O)N(C)C)CCCN1c1cnc(C(N)=O)c(Nc2ccc(N3CCN(C)CC3)cc2)n1` [Example D-111, 5-[(2R,3R)-3-[(dimethylcarbamoyl)amino]-2-methylpiperidin-1-yl]-3-{[4-(4-methylpiperazin-1-yl)phenyl]amino}pyrazine-2-carboxamide], for which the IC50 was at most 0.01 µM on BTK-WT, 0.1 to 1 µM at JAK3, 0.1 to 1 µM at EGFR and 0.01 to 0.1 µM against SRC.
Turning to `C[C@@H]1[C@H](NC(=O)N(C)C)CCCN1c1cnc(C(N)=O)c(Nc2cc(C3CCN(C4CCCC4)CC3)ns2)n1` [Example D-163, 3-{[3-(1-cyclopentylpiperidin-4-yl)-1,2-thiazol-5-yl]amino}-5-[(2R,3R)-3-[(dimethylcarbamoyl)amino]-2-methylpiperidin-1-yl]pyrazine-2-carboxamide], the IC50 at BTK-WT was at most 0.01 µM; at JAK3 it was 0.1 to 1 µM; at EGFR it was 0.1 to 1 µM; on SRC it was at most 0.01 µM.
For `C[C@@H]1[C@H](NC(=O)c2ccc(C3CC3)cc2)CCCN1c1cnc(C(N)=O)c(Nc2cc(CN3CCCCC3)ns2)n1` [Example D-140, 5-[(2R,3R)-3-(4-cyclopropylbenzamido)-2-methylpiperidin-1-yl]-3-{[3-(piperidin-1-ylmethyl)-1,2-thiazol-5-yl]amino}pyrazine-2-carboxamide], the IC50 on BTK-WT is at most 0.01 µM; at JAK3, 0.1 to 1 µM; on EGFR, 1 to 10 µM; against SRC it was 0.01 to 0.1 µM.
The like results for `C[C@@H]1[C@H](NC(=O)c2ccc(C3CC3)cc2F)CCCN1c1cnc(C(N)=O)c(Nc2ccc(S(C)(=O)=O)cc2)n1` [Example D-133, 5-[(2R,3R)-3-(4-cyclopropyl-2-fluorobenzamido)-2-methylpiperidin-1-yl]-3-[(4-methanesulfonylphenyl)amino]pyrazine-2-carboxamide] were, in that order, at most 0.01 µM, 1 to 10 µM, 1 to 10 µM and 0.1 to 1 µM.
On the same counts, the results for `C[C@@H]1CC[C@H](NC(=O)N(C)C)CN1c1cnc(C(N)=O)c(Nc2cnn(C)c2)n1` [Example D-151, 5-[(2R,5S)-5-[(dimethylcarbamoyl)amino]-2-methylpiperidin-1-yl]-3-[(1-methyl-1H-pyrazol-4-yl)amino]pyrazine-2-carboxamide] are 0.01 to 0.1 µM, above 10 µM, 1 to 10 µM and 0.1 to 1 µM.
The like results for `C[C@@H]1[C@H](NC(=O)c2ccc(C3CC3)cc2F)CCCN1c1cnc(C(N)=O)c(Nc2ccc(CN3CCN(C)CC3)cn2)n1` [Example D-132, 5-[(2R,3R)-3-(4-cyclopropyl-2-fluorobenzamido)-2-methylpiperidin-1-yl]-3-({5-[(4-methylpiperazin-1-yl)methyl]pyridin-2-yl}amino)pyrazine-2-carboxamide] were, in that order, 0.01 to 0.1 µM, above 10 µM, above 10 µM and above 10 µM.
For the compound `C[C@@H]1CC[C@H](NC(=O)c2ccc(C3CC3)cc2)CN1c1cnc(C(N)=O)c(Nc2ccc(N3CCN(C)CC3)c(F)c2)n1` [Example D-149, 5-[(2R,5 S)-5-(4-cyclopropylbenzamido)-2-methylpiperidin-1-yl]-3-{[3-fluoro-4-(4-methylpiperazin-1-yl)phenyl]amino}pyrazine-2-carboxamide], the IC50 at BTK-WT is 0.01 to 0.1 µM; at JAK3, 1 to 10 µM; against EGFR, above 10 µM; at SRC it was 0.1 to 1 µM.
On the same counts, the results for `CN1CCN(Cc2ccc(Nc3nc(N4CCC[C@@H](n5ccc6cc(C7CC7)ccc6c5=O)C4)cnc3C(N)=O)cc2)CC1` [Example D-167, 5-[(3R)-3-(6-cyclopropyl-1-oxo-1,2-dihydroisoquinolin-2-yl)piperidin-1-yl]-3-({4-[(4-methylpiperazin-1-yl)methyl]phenyl}amino)pyrazine-2-carboxamide] are at most 0.01 µM, 0.1 to 1 µM, 1 to 10 µM and 0.1 to 1 µM.
On the same counts, the results for `Cc1cc(Nc2cc(N3CCC[C@@H](NC(=O)c4ccc(C5CC5)cc4F)[C@H]3C)cnc2C(N)=O)sn1` [Example D-116, 5-[(2R,3R)-3-(4-cyclopropyl-2-fluorobenzamido)-2-methylpiperidin-1-yl]-3-[(3-methyl-1,2-thiazol-5-yl)amino]pyridine-2-carboxamide] are at most 0.01 µM, 1 to 10 µM, 1 to 10 µM and 0.1 to 1 µM.
The like results for `C[C@H]1CC[C@@H](NC(=O)c2ccc(C(C)(C)O)cc2)CN1c1nnc(C(N)=O)c(Nc2cnn(C)c2)n1` [Example D-157, 3-[(2S,5R)-5-[4-(2-hydroxypropan-2-yl)benzamido]-2-methylpiperidin-1-yl]-5-[(1-methyl-1H-pyrazol-4-yl)amino]-1,2,4-triazine-6-carboxamide] were, in that order, at most 0.01 µM, 0.1 to 1 µM, 1 to 10 µM and 0.01 to 0.1 µM.
On to `C[C@@H]1[C@H](NC(=O)N(C)C)CCCN1c1cnc(C(N)=O)c(Nc2cc(C3CCOCC3)ns2)n1` [Example D-162, 5-[(2R,3R)-3-[(dimethylcarbamoyl)amino]-2-methylpiperidin-1-yl]-3-{[3-(oxan-4-yl)-1,2-thiazol-5-yl]amino}pyrazine-2-carboxamide], for which the concentration for half-maximal inhibition (IC50) at BTK-WT is at most 0.01 µM; on JAK3, 1 to 10 µM; against EGFR it was 0.1 to 1 µM; on SRC it was 0.01 to 0.1 µM.
Consider `C[C@@H]1[C@H](NC(=O)c2ccc(C3CC3)cc2)CCCN1c1cnc(C(N)=O)c(Nc2ccc(OC3CCN(C4CCCC4)CC3)cc2)n1` [Example D-101, 3-({4-[(1-cyclopentylpiperidin-4-yl)oxy]phenyl}amino)-5-[(2R,3R)-3-(4-cyclopropylbenzamido)-2-methylpiperidin-1-yl]pyrazine-2-carboxamide], for which the IC50 at BTK-WT was at most 0.01 µM; at JAK3, 1 to 10 µM; against EGFR, 0.1 to 1 µM; against SRC, 0.01 to 0.1 µM.
The like results for `Cc1ccc(-c2cnc([C@@H]3CCCN(c4cnc(C(N)=O)c(Nc5cc(C)ns5)n4)C3)[nH]2)cc1` [Example D-137, 3-[(3-methyl-1,2-thiazol-5-yl)amino]-5-[(3R)-3-[5-(4-methylphenyl)-1H-imidazol-2-yl]piperidin-1-yl]pyrazine-2-carboxamide] were, in that order, 0.01 to 0.1 µM, above 10 µM, 1 to 10 µM and 1 to 10 µM.
The like results for `C[C@@H]1[C@H](NC(=O)c2ccc(C3CC3)cc2F)CCCN1c1cnc(C(N)=O)c(Nc2cc(CN(C)C)ns2)n1` [Example D-122, 5-[(2R,3R)-3-(4-cyclopropyl-2-fluorobenzamido)-2-methylpiperidin-1-yl]-3-({3-[(dimethylamino)methyl]-1,2-thiazol-5-yl}amino)pyrazine-2-carboxamide] were, in that order, at most 0.01 µM, 1 to 10 µM, 1 to 10 µM and 0.01 to 0.1 µM.
On the same counts, the results for `C[C@@H]1[C@H](NC(=O)c2ccc(C(C)(C)O)c(F)c2)CCCN1c1cnc(C(N)=O)c(Nc2cnn(C)c2)n1` [Example D-160, 5-[(2R,3R)-3-[3-fluoro-4-(2-hydroxypropan-2-yl)benzamido]-2-methylpiperidin-1-yl]-3-[(1-methyl-1H-pyrazol-4-yl)amino]pyrazine-2-carboxamide] are at most 0.01 µM, 0.1 to 1 µM, 0.1 to 1 µM and 0.01 to 0.1 µM.
